Experiment [1] deals with T1, human PTPN2 (Homo sapiens, UniProt P17706).
T1 sequence (P17706 1-415): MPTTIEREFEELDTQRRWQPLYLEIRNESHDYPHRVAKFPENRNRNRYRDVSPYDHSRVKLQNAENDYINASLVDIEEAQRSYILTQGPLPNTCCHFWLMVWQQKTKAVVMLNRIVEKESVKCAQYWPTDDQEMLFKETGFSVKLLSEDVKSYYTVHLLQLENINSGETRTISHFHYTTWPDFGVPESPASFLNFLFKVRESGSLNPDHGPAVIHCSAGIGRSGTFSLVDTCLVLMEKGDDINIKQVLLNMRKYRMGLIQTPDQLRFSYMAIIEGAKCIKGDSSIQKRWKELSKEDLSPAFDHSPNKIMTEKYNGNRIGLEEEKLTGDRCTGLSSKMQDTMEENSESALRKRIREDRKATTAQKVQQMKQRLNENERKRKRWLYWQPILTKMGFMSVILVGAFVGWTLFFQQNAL
As to the kind of experiment: PTPN2 BCHEM (PhosphoSens assay, substrate AQT0264). The class given is biochemical. The conditions noted are these: PhosphoSens substrate AQT0264 20 μM, PTPN2 150 pM, room temperature. How it is done:
A PhosphoSens® kinase assay was performed as described by the vendor (AssayQuant Technologies, Marlborough, MA). Briefly, 1000× solutions of compounds were prepared in DMSO via serial dilution of the 10 mM DMSO stocks using 3-fold intervals in a 384-well reagent plate. 50 nL of the compound dilution series was then added to the corresponding wells of a 384-well assay plate. 40 mL of 1.25× substrate (AQT0264) in 1× assay buffer (50 mM HEPES pH 7.5, 500 μM EGTA, […] MgCl2, 0.01% Brij-35, 1% Glycerol, 1 mM DTT, and 0.2 mg/mL BSA) was transferred to each well of the assay plate to achieve a final substrate concentration of 20 μM. Finally, […] of 5× PTPN2 enzyme stock was added to each well of the assay plate for a final enzyme concentration of 150 pM. Reaction progress curves were collected by sampling fluorescence intensity at the excitation wavelength 360 nm (λex360) and emission wavelength 480 nm (λem480) every 71 seconds for one hour using a Synergy H4 plate reader (BioTek Instruments/Agilent Technologies, Winooski, VT) at room temperature.
(§1) For IC50 data, High DDT concentration and/or DiFMUP substrate assays were used; a skilled artisan may use either assay.

The test system of experiment [2] is phosphorylated STAT1 in B16-F10 cells. Description: Phospho-STAT1 (Tyr701) HTRF assay in B16-F10 cells with IFN-gamma. The class given is cell-based. The note with it: mouse IFN-gamma 100 ng/mL, 1 hour, read-out: pSTAT1 HTRF B16 EC50. How it is done:
B16-F10 cells (ATCC, Manassas, VA, #CRL-6475) were cultured in DMEM growth medium (ThermoFisher Scientific, Waltham, MA, #11995-040) supplemented with 10% heat inactivated FBS (ThermoFisher Scientific, #16140-071) and 1% pen/strep (ThermoFisher Scientific, #15140-122). The cells were seeded into a white opaque 384-well tissue culture treated microplate (PerkinElmer, Waltham, MA, #6007688) at a density of 10,000 cells/well in 20 uL total volume and incubated overnight at 37 C and 5% CO2. 30 nL of compounds dissolved in DMSO were then transferred from a source plate into target wells with the Echo650 acoustic liquid handler (Beckman Coulter, Indianapolis, IN). Negative control wells received 30 nL of DMSO only (0.15% final concentration). Plates were returned to the incubator for 1 hour and then cells treated with either 5 uL of growth medium or 5 uL of growth medium containing 500 ng/ml of recombinant mouse IFN-gamma protein (R&D Systems, Minneapolis, MN, #485-MI/CF, 100 ng/mL final concentration) using the Assist automated pipetting platform (INTEGRA Biosciences, Hudson, NH). Plates were incubated at 37 C for 1 hour and assayed for phosphorylated STAT1 protein levels with the phospho-STAT1 (Tyr701) HTRF kit (Cisbio, Bedford, MA, #63ADK026PEH) according to manufacturer's instructions. HTRF signal intensity was collected with the EnVision 2105 plate reader (PerkinElmer) 24 hours later and analyzed with the Dotmatics software platform to calculate compound IC50 values.
For orientation: In TR-FRET formats the signal depends on donor and acceptor labels being close together.

The test system of another experiment is B16-F10 cells. As to the kind of experiment: Cell proliferation assay in B16-F10 cells with IFN-gamma (CellTiter-Glo). The class given is cell-based. The conditions noted are these: 120 h, mouse IFN-gamma 10 ng/mL, read-out: PTPN2 Prolif 5d B16F10 EC50. The protocol: B16-F10 cells (ATCC, Manassas, VA, #CRL-6475) were cultured in DMEM growth medium (ThermoFisher Scientific, Waltham, MA, #11995-040) supplemented with 10% heat inactivated FBS (ThermoFisher Scientific, #16140-071) and 1% pen/strep (ThermoFisher Scientific, #15140-122). The cells were seeded into two white opaque 384-well tissue culture treated microplates (PerkinElmer, Waltham, MA, #6007688) at a density of 100 cells/well in 20 uL total volume and incubated overnight at 37 C and 5% CO2. 30 nL of compounds dissolved in DMSO were then transferred from a source plate into target wells with the Echo650 acoustic liquid handler (Beckman Coulter, Indianapolis, IN). Negative control wells received 30 nL of DMSO only (0.15% final concentration). Plates were returned to the incubator for 1 hour and then cells treated with either 5 uL of growth medium or 5 uL of growth medium containing 50 ng/ml of recombinant mouse IFN-gamma protein (R&D Systems, Minneapolis, MN, #485-MI/CF, 10 ng/mL final concentration) using the Assist automated pipetting platform (INTEGRA Biosciences, Hudson, NH). Plates were incubated at 37C for 4 days and cell proliferation assayed with the CellTiter-Glo reagent (Promega, Madison, WI, #G7573, 25 uL per well). […] Off-target compound mediated cytotoxicity was identified by checking for growth inhibition in the absence of IFNg.
(ATP-based viability assays read luminescence as a measure of living cells.)

In experiment [3] the target is T1, human PTPN2. As to the kind of experiment: Phosphatase activity assay using DiFMUP as substrate (PTPN2 BCHEM DIFMUP). The class given is biochemical. The arrangement: purchased MilliporeSigma SRP5075. The note with it: human PTPN2 0.15 nM, 10 mM DTT, room temperature. The protocol:
The PTPN2 biochemical assay was performed as follows, a 5× stock solution of human PTPN2 (SRP5075, MilliporeSigma, Burlington, MA) and a 1.25× stock solution of DiFMUP (D6567, ThermoFisher Scientific, Waltham, MA), were prepared in 1× reaction buffer consisting of 50 mM HEPES, pH 7.4, 1 mM EDTA, 150 mM NaCl, 0.2 mg/mL BSA, 100 U/mL catalase and 10 mM DTT. […] of the DiFMUP substrate solution, for a final concentration of […] DiFMUP substrate, was added to a Corning 3574 384-well, white, non-binding surface microtiter plate containing […] of serially diluted test compounds prepared in DMSO. The reactions were started with the addition of […] of the enzyme solution, for a final PTPN2 concentration of 0.15 nM, and monitored every 105 seconds for 60 minutes at λEX 360/λEM 460 in a BioTek Synergy HTX plate reader (Agilent Technologies, Santa Clara, CA) at room temperature. The initial linear portions of the progress curves were fit according to a linear equation to yield the slopes and converted to % inhibition based on a value of 100% activity for the no inhibitor treated control. IC50 values of each compound were obtained by fitting the % inhibition-compound concentration curves using Dotmatics software (Dotmatics, Bishops Stortford, Hertfordshire, England).
as §1

By IC50 is commonly meant the midpoint of a concentration-inhibition curve. One may read the EC50 as the concentration that produces a half-maximal response. Turning to `Cc1ccc(-c2csc(N(C)Cc3cc(O)c(N4CC(=O)NS4(=O)=O)c(F)c3)n2)c(C)c1` [EXAMPLE 1, 5-(4-(((4-(2,4-dimethylphenyl)thiazol-2-yl)(methyl)amino)methyl)-2-fluoro-6-hydroxyphenyl)-1,2,5-thiadiazolidin-3-one 1,1-dioxide], the IC50 came out at 940 nM at human PTPN2 [1] and 720 nM on human PTPN2 [3]. Besides, the EC50 (in experiment [2]; with B16-F10 cells) was more than 15000 nM each time.
Take `Cc1cc(NCc2cc(O)c(N3CC(=O)NS3(=O)=O)c(F)c2)no1` [EXAMPLE 4, 5-(2-fluoro-6-hydroxy-4-(((5-methylisoxazol-3-yl)amino)methyl)phenyl)-1,2,5-thiadiazolidin-3-one 1,1-dioxide]: the IC50 on human PTPN2 [1] came to 20 nM; on human PTPN2 [3], 30 nM. The EC50 in experiment [2] turned out to be 350 nM; in the experiment on B16-F10 cells, 1030 nM.
In the case of `Cn1ccnc1NCc1cc(O)c(N2CC(=O)NS2(=O)=O)c(F)c1` [EXAMPLE 11, 5-(2-fluoro-6-hydroxy-4-(((1-methyl-1H-imidazol-2-yl)amino)methyl)phenyl)-1,2,5-thiadiazolidin-3-one 1,1-dioxide], the results for the EC50 (in experiment [2]; in the experiment on B16-F10 cells) were 210 nM and 160 nM, respectively. For the same compound, the half-inhibitory concentration (IC50) on human PTPN2 [3] worked out at 10 nM.
Consider `O=C1CN(c2c(O)cc(CNc3ncc[nH]3)cc2F)S(=O)(=O)N1` [EXAMPLE 10, 5-(4-(((1H-imidazol-2-yl)amino)methyl)-2-fluoro-6-hydroxyphenyl)-1,2,5-thiadiazolidin-3-one 1,1-dioxide], for which the EC50 worked out at 90 nM in experiment [2] and 180 nM in the experiment on B16-F10 cells. For the same compound, the IC50 at human PTPN2 [3] came to 6 nM.

Values taken from patent publication US20240238258A1, “INHIBITORS OF PROTEIN TYROSINE PHOSPHATASE, COMPOSITIONS, AND METHODS OF USE” (BRISTOL-MYERS SQUIBB COMPANY, priority 2022, published 2024).
